# Test results from US10233173B2, “Substituted 1,2,3-triazoles as NR2B-selective NMDA modulators” (JANSSEN PHARMACEUTICA NV, priority 2016, dated 2019).
# Biological target: human GluN1/GluN2B NMDA receptors (Homo sapiens, UniProt Q05586+Q13224)
# Experiment: Cell-based calcium flux (FLIPR) assay on cloned human NR1/NR2B ion channels expressed in mammalian cells
# Conditions: standard assay; glutamate at ~EC80; FLIPR calcium flux
# How it was run: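 Calcium influx followed by FLIPR fluorescence after 5 min compound exposure and a further 5 min co-agonist challenge: 10 μM glycine with glutamate at ~EC80 (standard) or EC40 (HTS).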
# Sequence of human GluN1/GluN2B NMDA receptors (Q13224 27-1484, other chains not shown): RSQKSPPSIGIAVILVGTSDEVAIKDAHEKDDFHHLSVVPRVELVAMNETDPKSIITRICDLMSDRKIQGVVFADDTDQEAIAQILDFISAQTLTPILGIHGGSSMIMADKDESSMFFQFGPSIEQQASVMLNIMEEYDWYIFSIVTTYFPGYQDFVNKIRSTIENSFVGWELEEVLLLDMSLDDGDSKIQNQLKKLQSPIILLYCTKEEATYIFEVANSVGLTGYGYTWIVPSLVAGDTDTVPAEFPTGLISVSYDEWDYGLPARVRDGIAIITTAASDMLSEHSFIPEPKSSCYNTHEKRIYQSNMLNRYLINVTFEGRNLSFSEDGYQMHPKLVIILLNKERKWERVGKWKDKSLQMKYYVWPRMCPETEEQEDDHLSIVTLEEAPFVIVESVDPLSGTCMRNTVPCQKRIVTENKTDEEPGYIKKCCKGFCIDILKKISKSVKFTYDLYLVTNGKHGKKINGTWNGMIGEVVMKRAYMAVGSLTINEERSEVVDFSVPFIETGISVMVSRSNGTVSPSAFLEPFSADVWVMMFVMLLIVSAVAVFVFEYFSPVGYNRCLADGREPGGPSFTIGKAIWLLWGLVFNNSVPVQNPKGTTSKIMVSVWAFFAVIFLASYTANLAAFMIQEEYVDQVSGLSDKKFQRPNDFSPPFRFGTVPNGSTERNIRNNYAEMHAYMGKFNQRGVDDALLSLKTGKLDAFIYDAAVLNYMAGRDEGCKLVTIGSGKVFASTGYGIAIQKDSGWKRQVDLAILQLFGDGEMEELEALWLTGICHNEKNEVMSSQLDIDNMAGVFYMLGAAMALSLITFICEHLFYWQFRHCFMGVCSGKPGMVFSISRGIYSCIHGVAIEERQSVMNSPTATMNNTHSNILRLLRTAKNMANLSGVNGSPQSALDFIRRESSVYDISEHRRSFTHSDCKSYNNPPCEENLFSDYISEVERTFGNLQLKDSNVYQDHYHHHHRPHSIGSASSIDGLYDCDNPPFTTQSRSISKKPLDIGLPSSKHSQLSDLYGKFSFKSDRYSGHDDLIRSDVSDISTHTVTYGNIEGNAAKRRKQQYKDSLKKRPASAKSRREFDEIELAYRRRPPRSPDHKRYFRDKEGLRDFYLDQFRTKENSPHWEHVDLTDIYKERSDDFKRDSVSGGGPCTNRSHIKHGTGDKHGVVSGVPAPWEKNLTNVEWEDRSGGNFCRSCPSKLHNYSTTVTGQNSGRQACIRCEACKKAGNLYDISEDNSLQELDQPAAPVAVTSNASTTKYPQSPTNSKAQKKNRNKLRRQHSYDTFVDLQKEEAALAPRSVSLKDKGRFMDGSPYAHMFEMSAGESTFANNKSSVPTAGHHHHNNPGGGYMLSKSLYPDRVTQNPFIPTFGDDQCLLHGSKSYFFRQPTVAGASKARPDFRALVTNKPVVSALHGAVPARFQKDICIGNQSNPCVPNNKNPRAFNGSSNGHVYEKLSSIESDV
row,Compound,IC50 [µM]
1,"COc1ccnc(OCc2cn(-c3ccc(F)c(C(F)(F)F)c3)nn2)n1 [Example 442, 2-[[1-[4-Fluoro-3-(trifluoromethyl)phenyl]triazol-4-yl]methoxy]-4-methoxy-pyrimidine]",0.072
2,"Cc1c(F)ccc(-n2cc(COc3ncc(C(C)(C)O)cn3)nn2)c1F [Example 644, 2-[2-[[1-(2,4-Difluoro-3-methyl-phenyl)triazol-4-yl]methoxy]pyrimidin-5-yl]propan-2-ol]",0.967
3,"CC(F)(F)c1cc(-n2cc(COc3ncc(C4CC4)cn3)nn2)ccc1F [Example 587, 5-Cyclopropyl-2-[[1-[3-(1,1-difluoroethyl)-4-fluoro-phenyl]triazol-4-yl]methoxy]pyrimidine]",0.041
4,"Fc1ccc(-n2cc(COc3nccc(C(F)F)n3)nn2)cc1C(F)F [Example 402, 4-(Difluoromethyl)-2-[[1-[3-(difluoromethyl)-4-fluoro-phenyl]triazol-4-yl]methoxy]pyrimidine]",0.051
5,"CCc1cnc(OCc2cn(-c3ccnc(C)c3)nn2)nc1 [Example 664, 5-Ethyl-2-[[1-(2-methyl-4-pyridyl)triazol-4-yl]methoxy]pyrimidine]",0.169
6,"CC(C)c1ccnc(OCc2cn(-c3ccc(Cl)c(C(F)F)c3)nn2)n1 [Example 623, 2-[[1-[4-Chloro-3-(difluoromethyl)phenyl]triazol-4-yl]methoxy]-4-isopropyl-pyrimidine]",0.129
7,"CC(C)(O)c1cnc(OCc2cn(-c3ccc(Cl)c(C(C)(F)F)c3)nn2)nc1 [Example 532, 2-[2-[[1-[4-Chloro-3-(1,1-difluoroethyl)phenyl]triazol-4-yl]methoxy]pyrimidin-5-yl]propan-2-ol]",0.081
8,"FCCCc1cnc(OCc2cn(-c3ccc(Cl)c(C(F)F)c3)nn2)nc1 [Example 637, 2-[[1-[4-Chloro-3-(difluoromethyl)phenyl]triazol-4-yl]methoxy]-5-(3-fluoropropyl)pyrimidine]",0.011
9,"Cc1nc(OCc2cn(-c3ccc(F)c(C(F)(F)F)c3)nn2)ncc1N1CCC1 [Example 457, 5-(Azetidin-1-yl)-2-((1-(3-(trifluoromethyl)-4-fluorophenyl)-1H-1,2,3-triazol-4-yl)methoxy)-4-methylpyrimidine]",0.296
10,"CC(F)(F)c1cc(-n2cc(COc3ncc(C(F)F)cn3)nn2)ccc1F [Example 562, 2-[[1-[3-(1,1-Difluoroethyl)-4-fluoro-phenyl]triazol-4-yl]methoxy]-5-(difluoromethyl)pyrimidine]",0.014
11,"Fc1ccc(-n2cc(COc3ncccc3F)nn2)cc1C(F)(F)F [Example 427, 3-Fluoro-2-[[1-[4-fluoro-3-(trifluoromethyl)phenyl]triazol-4-yl]methoxy]pyridine]",0.897
12,"CC(C)(O)c1cnc(OCc2cn(-c3ccc(F)c(C(F)F)c3)nn2)nc1 [Example 401, 2-[2-[[1-[3-(Difluoromethyl)-4-fluoro-phenyl]triazol-4-yl]methoxy]pyrimidin-5-yl]propan-2-ol]",0.017
13,"CC(F)(F)c1cc(-n2cc(COc3ncc(C4CC4)cn3)nn2)ccc1Cl [Example 552, 2-[[1-[4-Chloro-3-(1,1-difluoroethyl)phenyl]triazol-4-yl]methoxy]-5-cyclopropyl-pyrimidine]",0.086
14,"Cc1c(F)ccc(-n2cc(COc3ncc(C(F)F)cn3)nn2)c1F [Example 641, 5-(Difluoromethyl)-2-[[1-(2,4-difluoro-3-methyl-phenyl)triazol-4-yl]methoxy]pyrimidine]",0.111
15,"CC(F)(F)c1cc(-n2cc(COc3nccc(C(F)F)n3)nn2)ccc1F [Example 563, 2-[[1-[3-(1,1-Difluoroethyl)-4-fluoro-phenyl]triazol-4-yl]methoxy]-4-(difluoromethyl)pyrimidine]",0.048
16,"Cc1cc(F)ccc1-n1cc(COc2ncc(F)cn2)nn1 [Example 487, 5-Fluoro-2-[[1-(4-fluoro-2-methyl-phenyl)triazol-4-yl]methoxy]pyrimidine]",16.2
17,"COCc1ccnc(OCc2cn(-c3ccc(F)c(C)c3)nn2)n1 [Example 479, 2-[[1-(4-Fluoro-3-methyl-phenyl)triazol-4-yl]methoxy]-4-(methoxymethyl)pyrimidine]",0.036
18,"Cc1c(F)ccc(-n2cc(COc3nccc(C(F)F)n3)nn2)c1F [Example 642, 4-(Difluoromethyl)-2-[[1-(2,4-difluoro-3-methyl-phenyl)triazol-4-yl]methoxy]pyrimidine]",2.21
19,"Cc1ccc(OCc2cn(-c3ccc(F)c(C(F)(F)F)c3)nn2)nc1 [Example 431, 2-[[1-[4-Fluoro-3-(trifluoromethyl)phenyl]triazol-4-yl]methoxy]-5-methyl-pyridine]",0.101
20,"Cc1cnc(OCc2cn(-c3ccc(Cl)c(C(F)F)c3)nn2)nc1N(C)C [Example 633, 2-[[1-[4-Chloro-3-(difluoromethyl)phenyl]triazol-4-yl]methoxy]-N,N,5-trimethyl-pyrimidin-4-amine]",0.057
21,"FC(F)(F)c1cnc(OCc2cn(-c3ccc(C(F)(F)F)s3)nn2)nc1 [Example 670, 5-(Trifluoromethyl)-2-((1-(5-(trifluoromethyl)thiophen-2-yl)-1H-1,2,3-triazol-4-yl)methoxy)pyrimidine]",0.063

# Same assay, conditions: standard assay; human GluN1/GluN2B, calcium flux (FLIPR), glutamate ~EC80
row,Compound,IC50 [µM]
1,"CC(F)(F)c1cccc(-n2cc(COc3ncc(N4CC(F)C4)cn3)nn2)c1 [Example 321, 2-[[1-[3-(1,1-Difluoroethyl)phenyl]triazol-4-yl]methoxy]-5-(3-fluoroazetidin-1-yl)pyrimidine]",0.104
2,"CCc1cnc(OCc2cn(-c3cccc(F)c3)nn2)nc1 [Example 233, 5-Ethyl-2-[[1-(3-fluorophenyl)triazol-4-yl]methoxy]pyrimidine]",0.075
3,"Cc1ccnc(OCc2cn(-c3cccc(C(C)(F)F)c3)nn2)n1 [Example 296, 2-[[1-[3-(1,1-Difluoroethyl)phenyl]triazol-4-yl]methoxy]-4-methyl-pyrimidine]",0.012
4,"CC(=O)c1cnc(OCc2cn(-c3cccc(OC(F)(F)F)c3)nn2)nc1 [Example 344, 1-[2-[[1-[3-(Trifluoromethoxy)phenyl]triazol-4-yl]methoxy]pyrimidin-5-yl]ethanone]",0.062
5,"Cc1nc(OCc2cn(-c3cccc(C(F)(F)F)c3)nn2)ncc1Cl [Example 291, 5-Chloro-4-methyl-2-[[1-[3-(trifluoromethyl)phenyl]triazol-4-yl]methoxy]pyrimidine]",0.009
6,"Cc1cnc(NCc2cn(-c3ccc(Cl)c(C(F)F)c3)nn2)nc1 [Example 154, N-[[1-[4-Chloro-3-(difluoromethyl)phenyl]triazol-4-yl]methyl]-5-methyl-pyrimidin-2-amine]",0.03
7,"CNc1ccnc(OCc2cn(-c3ccc(Cl)c(OC(F)F)c3)nn2)n1 [Example 171, 2-[[1-[4-Chloro-3-(difluoromethoxy)phenyl]triazol-4-yl]methoxy]-N-methyl-pyrimidin-4-amine]",0.006
8,"CC(C)c1cnc(OCc2cn(-c3ccc(Cl)c(C(F)F)c3)nn2)nc1 [Example 48, 2-[[1-[4-Chloro-3-(difluoromethyl)phenyl]triazol-4-yl]methoxy]-5-isopropyl-pyrimidine]",0.008
9,"Cc1ccc(-n2cc(COc3ncc(C)cn3)nn2)cc1 [Example 260, 5-Methyl-2-[[1-(p-tolyl)triazol-4-yl]methoxy]pyrimidine]",0.271
10,"CCc1cnc(OCc2cn(-c3cccc(C(F)(F)F)c3)nn2)nc1 [Example 287, 5-Ethyl-2-[[1-[3-(trifluoromethyl)phenyl]triazol-4-yl]methoxy]pyrimidine]",0.005
11,"CC(F)(F)c1cccc(-n2cc(COc3ncc(Br)cn3)nn2)c1 [Example 293, 5-Bromo-2-[[1-[3-(1,1-difluoroethyl)phenyl]triazol-4-yl]methoxy]pyrimidine]",0.039
12,"CC(C)c1cccc(-n2cc(COc3ncc(F)cn3)nn2)c1 [Example 263, 5-Fluoro-2-[[1-(3-isopropylphenyl)triazol-4-yl]methoxy]pyrimidine]",0.227
13,"Cc1cnc(OCc2cn(-c3cccc(C(F)(F)F)c3)nn2)nc1 [Example 286, 5-Methyl-2-[[1-[3-(trifluoromethyl)phenyl]triazol-4-yl]methoxy]pyrimidine]",0.012
14,"Cc1cnc(O[C@@H](C)c2cn(-c3ccc(Cl)c(OC(F)F)c3)nn2)nc1 [Example 380, 2-[(1S)-1-[1-[4-Chloro-3-(difluoromethoxy)phenyl]triazol-4-yl]ethoxy]-5-methyl-pyrimidine]",0.237
15,"Cc1cc(C)cc(-n2cc(COc3ncccn3)nn2)c1 [Example 360, 2-[[1-(3,5-Dimethylphenyl)triazol-4-yl]methoxy]pyrimidine]",0.791
16,"Cc1cnc(OC(C)c2cn(-c3ccc(Cl)c(OC(F)F)c3)nn2)nc1 (single isomer, unassigned) [Example 57, (R*)-2-[1-[1-[4-Chloro-3-(difluoromethoxy)phenyl]triazol-4-yl]ethoxy]-5-methyl-pyrimidine]",0.338
17,"Cc1cnc(OCc2cn(-c3ccc(OC(F)F)cc3)nn2)nc1 [Example 333, 2-[[1-[4-(Difluoromethoxy)phenyl]triazol-4-yl]methoxy]-5-methyl-pyrimidine]",0.087
18,"Cn1cc(NCc2cn(-c3ccc(F)c(OC(F)F)c3)nn2)cn1 [Example 102, N-[[1-[3-(Difluoromethoxy)-4-fluoro-phenyl]triazol-4-yl]methyl]-1-methyl-pyrazol-4-amine]",3.25
19,"CC(C)(O)c1cnc(OCc2cn(-c3ccc(Cl)c(OC(F)F)c3)nn2)nc1 [Example 385, 2-[2-[[1-[4-Chloro-3-(difluoromethoxy)phenyl]triazol-4-yl]methoxy]pyrimidin-5-yl]propan-2-ol]",0.028
20,"Fc1ccc(-n2cc(COc3ccccn3)nn2)cc1C(F)(F)F [Example 158, 2-[[1-[4-Fluoro-3-(trifluoromethyl)phenyl]triazol-4-yl]methoxy]pyridine]",3.04
21,"CC(F)(F)c1cccc(-n2cc(COc3ncccn3)nn2)c1 [Example 292, 2-[[1-[3-(1,1-Difluoroethyl)phenyl]triazol-4-yl]methoxy]pyrimidine]",0.105
